Measurements published in PubChem BioAssay AID330 (DTP/NCI, 2004).
Toxic doses and inconclusive results are not listed.

System: P388 leukemia ip, CD2F1 mice, survival T/C
Assay: NCI In Vivo Anticancer Drug Screen. Data for tumor model P388 Leukemia (intraperitoneal) in CD2F1 (CDF1) mice
Conditions: endpoint: median survival time, higher = longer survival
How it was run: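 Mice carrying the transplanted tumor received test compound or vehicle. Survival was recorded in each group, and the value is the treated-group measurement divided by that of the vehicle-treated control group.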

[1] = dose: 50.0 mg/kg/injection, schedule: Q01DX005 (ip), vehicle: Klucel + Tween-80
[2] = dose: 100.0 mg/kg/injection, schedule: Q01DX005 (ip), vehicle: Klucel + Tween-80
[3] = dose: 200.0 mg/kg/injection, schedule: Q01DX005 (ip), vehicle: Klucel + Tween-80
[4] = dose: 100.0 mg/kg/injection, schedule: Q01DX009 (ip), vehicle: saline with Tween-80
[5] = dose: 200.0 mg/kg/injection, schedule: Q01DX009 (ip), vehicle: saline with Tween-80
[6] = dose: 50.0 mg/kg/injection, schedule: Q01DX009 (ip), vehicle: saline with Tween-80
[7] = dose: 60.0 mg/kg/injection, schedule: Q01DX005 (ip), vehicle: saline with Tween-80
[8] = dose: 120.0 mg/kg/injection, schedule: Q01DX005 (ip), vehicle: saline with Tween-80
[9] = dose: 240.0 mg/kg/injection, schedule: Q01DX005 (ip), vehicle: saline with Tween-80
[10] = dose: 100.0 mg/kg/injection, schedule: Q04DX002 (ip), vehicle: saline with Tween-80
[11] = dose: 200.0 mg/kg/injection, schedule: Q04DX002 (ip), vehicle: saline with Tween-80
[12] = dose: 400.0 mg/kg/injection, schedule: Q04DX002 (ip), vehicle: saline with Tween-80

In the case of `O=C(O)Cc1ccc(C2CCCCC2)cc1`, the T/C (dose: 100.0 mg/kg/injection, schedule: Q04DX003 (ip), vehicle: Klucel (hydroxypropylcellulose) (HPC)) is reported as 90 % of control, the T/C (dose: 200.0 mg/kg/injection, schedule: Q04DX003 (ip), vehicle: Klucel (hydroxypropylcellulose) (HPC)) is reported as 100 % of control and the T/C (dose: 400.0 mg/kg/injection, schedule: Q04DX003 (ip), vehicle: Klucel (hydroxypropylcellulose) (HPC)) is reported as 100 % of control.
For `CC(=O)O[B-]1(OC(C)=O)Oc2c3ccccc3c3c4c(ccc(c24)=[O+]1)O[B-](OC(C)=O)(OC(C)=O)[O+]=3`, the T/C [1] was 94 % of control, the T/C [2] was 89 % of control and the T/C [3] was 93 % of control.
For `Cc1ccccc1C(C)(C#N)Nc1ccccc1` (stereo not given), the T/C [4] was 100 % of control, the T/C [5] was 113 % of control and the T/C (dose: 400.0 mg/kg/injection, schedule: Q01DX009 (ip), vehicle: saline with Tween-80) was 100 % of control.
In the case of `CN(C)CCc1ccc2ccc3cccc4ccc1c2c34`, the T/C [6] is reported as 107 % of control, the T/C [4] is reported as 102 % of control and the T/C [5] is reported as 108 % of control.
`O=C(NC(Cc1ccccc1)C(=O)O)C(=O)c1c[nH]c2ccc(Cl)cc12` (stereo not given) was tested, and the T/C [7] was 100 % of control, the T/C [8] was 96 % of control and the T/C [9] was 94 % of control.
For `CC(C)c1nnc(NC(=O)CSC(=S)N2CCOCC2)s1`, the T/C [7] was 106 % of control, the T/C [8] was 98 % of control and the T/C [9] was 97 % of control.
For `CC(C)CC1=C(C(=O)c2ccoc2)CC(C)C1` (stereo not given), the T/C (dose: 3.7 mg/kg/injection, schedule: Q01DX005 (ip), vehicle: Klucel (hydroxypropylcellulose) (HPC)) was 99 % of control, the T/C (dose: 7.5 mg/kg/injection, schedule: Q01DX005 (ip), vehicle: Klucel (hydroxypropylcellulose) (HPC)) was 95 % of control and the T/C (dose: 15.0 mg/kg/injection, schedule: Q01DX005 (ip), vehicle: Klucel (hydroxypropylcellulose) (HPC)) was 95 % of control.
For `ClCCN(CCCl)c1ccc2c(c1)Cc1cc(Br)ccc1-2`, the T/C (dose: 50.0 mg/kg/injection, schedule: Q01DX009 (ip), vehicle: Klucel (hydroxypropylcellulose) (HPC)) was 107 % of control, the T/C (dose: 100.0 mg/kg/injection, schedule: Q01DX009 (ip), vehicle: Klucel (hydroxypropylcellulose) (HPC)) was 110 % of control and the T/C (dose: 200.0 mg/kg/injection, schedule: Q01DX009 (ip), vehicle: Klucel (hydroxypropylcellulose) (HPC)) was 106 % of control. The T/C (dose: 400.0 mg/kg/injection, schedule: Q01DX009 (ip), vehicle: Klucel (hydroxypropylcellulose) (HPC)) was 110 % of control.
In the case of `CCN(CC)c1ccc2cc(C(=O)NC(=O)Oc3ccccc3)c(=O)oc2c1`, the T/C [10] is reported as 92 % of control, the T/C [11] is reported as 89 % of control and the T/C [12] is reported as 87 % of control.
`Oc1ccc2ccccc2c1/C=N\Sc1ccccc1` was tested, and the T/C [6] was 98 % of control and the T/C [4] was 98 % of control.
For `O=C1OC(c2ccc(O)cc2)(c2ccc(O)cc2)c2ccccc21`, the T/C [10] was 99 % of control, the T/C [11] was 103 % of control and the T/C [12] was 93 % of control.
In the case of `c1ccc(C2(c3ccc(C4(c5ccccc5)Oc5ccccc5S4)[nH]3)Oc3ccccc3S2)cc1` (stereo not given), the T/C [7] is reported as 96 % of control and the T/C [8] is reported as 107 % of control.
For `CCCOc1ccc(C(C)c2cc3c(cc2OCC)OCO3)cc1` (stereo not given), the T/C [1] was 104 % of control, the T/C [2] was 98 % of control and the T/C [3] was 97 % of control.
`COC1CCCC=C1[N+](=O)[O-]` (stereo not given) was tested, and the T/C (dose: 6.25 mg/kg/injection, schedule: Q01DX005 (ip), vehicle: saline) was 108 % of control, the T/C (dose: 12.5 mg/kg/injection, schedule: Q01DX005 (ip), vehicle: saline) was 116 % of control and the T/C (dose: 25.0 mg/kg/injection, schedule: Q01DX005 (ip), vehicle: saline) was 115 % of control.
For `Cc1ccc(NCCN2CCCCC2)c2c(=O)c3ccc(Cl)cc3sc12`, the T/C (dose: 60.0 mg/kg/injection, schedule: Q01DX005 (ip), vehicle: Klucel (hydroxypropylcellulose) (HPC)) was 94 % of control, the T/C (dose: 120.0 mg/kg/injection, schedule: Q01DX005 (ip), vehicle: Klucel (hydroxypropylcellulose) (HPC)) was 86 % of control and the T/C (dose: 240.0 mg/kg/injection, schedule: Q01DX005 (ip), vehicle: Klucel (hydroxypropylcellulose) (HPC)) was 97 % of control.
In the case of `CCCCCC(C)N(C)C(=O)CNCC(C)C` (stereo not given), the T/C (dose: 50.0 mg/kg/injection, schedule: Q01DX005 (ip), vehicle: saline with Tween-80) is reported as 100 % of control and the T/C (dose: 100.0 mg/kg/injection, schedule: Q01DX005 (ip), vehicle: saline with Tween-80) is reported as 108 % of control.
`Nc1nnc(SCc2ccccc2)s1` was tested, and the T/C (dose: 3.13 mg/kg/injection, schedule: Q01DX009 (ip), vehicle: saline with Tween-80) was 102 % of control, the T/C (dose: 6.25 mg/kg/injection, schedule: Q01DX009 (ip), vehicle: saline with Tween-80) was 104 % of control and the T/C (dose: 12.5 mg/kg/injection, schedule: Q01DX009 (ip), vehicle: saline with Tween-80) was 109 % of control. For the same compound, the T/C (dose: 25.0 mg/kg/injection, schedule: Q01DX009 (ip), vehicle: saline with Tween-80) was 103 % of control.
